“Also recorded” adds a separate entry of the source.
Columns and labels:
[1] = system: human umbilical vein endothelial cells; assay: Adhesion of UCB CD34+ cells to endothelial cells; format: cell-based
CXCR4 [2] = assay: Western blot of CXCR4 in lipid raft membrane fractions of THP-1 cells; format: cell-based, human
Protocol: FIG. 15A-B—Western blot analysis of the colocalization of CXCR4 in fractions of cell membranes enriched in lipid rafts (fractions 3-5) and depleted of lipid rafts (fractions 9-11). Panel A: Hematopoietic THP-1 cells were stimulated by C3a (1 μg/mL) or desArgC3a (1 μg/mL) or not stimulated (control). CXCR4 was detected in these membrane fractions by Western blot along with ganglioside GM1, a marker of lipid rafts. Experiments were performed three times with similar results. Panel B: In control experiments, cells were pretreated for 1 hr with 10 mM MβCD. A representative study is shown.
Furthermore, direct evidence of the effect of priming agents on CXCR4 incorporation into membrane lipid rafts was obtained from Western blot analysis of CXCR4 expression in various fractions of cell membranes isolated according to their lipid raft content (Example 2, FIG. 15A-B). […] The role of C3a in incorporation of CXCR4 into membrane lipid rafts in UCB cells and involvement of other signaling molecules to this phenomenon will be evaluated in Aim 1.

UCB MNC = assay: In vitro migration assay UCB (CD34+ HSC enumerated by FACS); format: cell-based, human; conditions: C3a 1 ug/ml; 3 h chemotaxis assay
Protocol: FIG. 52—In Vitro Migration Assay UCB. UCB MNC are loaded in the top chamber and the number of CD34^+ HSC present after the 3 h chemotaxis assay in the lower chambers from trans-wells are enumerated by FACS.

UCB and BM CD34+ cells = assay: MMP secretion and trans-Matrigel migration of primed CD34+ cells; format: cell-based, human; conditions: UCB and BM CD34+ cells primed with C3a
[3] = system: murine BM-derived Sca-1+ cells; assay: Homing of primed murine Sca-1+ cells into BM of lethally irradiated syngeneic mice; format: in vivo; conditions: Sca-1+ cells preincubated with C3a 30 min, 16 hrs after transplant
Description: FIG. 16A-B—Panel A: C3a primes homing of murine CFU-GM and CFU-S into BM of lethally irradiated mice. Murine BM-derived Sca-1^+ cells (10^5/mouse) were transplanted into lethally irradiated syngeneic mice. At 16 hrs after transplant, cells were recovered from the femurs of transplanted animals and assayed in secondary cultures for the number of clonogenic CFU-GM (left panel) and, after transplant into secondarily irradiated animals, for the number of day-12 CFU-S (right panel). Data are pooled from three independent experiments using 10 mice each/tested cells (n=30). * p<0.0001. No HSPC cells were recovered from the marrow cavities of control animals (irradiated, not transplanted) Panel B: C3a primes homing of human CB and BM CD34^+ cells into the BM of lethally irradiated NOD/SCID mice. At 16 hrs after transplantation of human CD34^+ cells (10^6/animal), mice were sacrificed and CFU-GM colonies were assayed in methylcellulose cultures. Data are pooled from independent experiments preformed on three different CB- and three different BM samples using 2-4 mice/tested cell sample. p<0.0001.
As final proof of our hypothesis and to test whether the primed cells home better to BM, we primed murine BM-derived Sca-1^+ and human BM- and UCB-derived CD34^+ cells with C3a before their transplantation into lethally irradiated mice. […]

[4] = system: UCB MNC and CD4+45RA+ T-cells; assay: Transmigration of UCB MNC and CD4+/45RA+ T-cells to SDF-1 without and with C3a priming; format: cell-based, human; conditions: C3a 1 μg/ml 30 minutes; SDF-1 10 ng/ml, 3 h
Protocol: FIG. 30A-B—UCB MNC migration to SDF-1. Lymphocytes from SSC/FSC plots were gated to determine the number of transmigrating UCB CD45^+CD4^+ T-cells. A. The total number of transmigrated lymphocytes migrating without and with C3a priming prior to exposure to 10 ng/ml SDF-1 (mean±SD). […] All staining patterns of labeled cells were compared to cells incubated with APC- and PerCP-isotype antibodies to set negative quadrants gates.
FIG. 31A-B—UCB CD4^+45RA T-cell migration to SDF-1. […] A. Percentage of selected CD4^+/45RA^+ T-cells transmigrating without and with C3a priming prior to exposure to 10 ng/ml SDF-1 (mean±SD). B. CD45^+CD4^+ T-cells were observed only in gate P3 in contrast to the transmigration of MNC.
Cord blood MNC (FIG. 30A-B) isolated by Ficoll density gradient centrifugation or naïve CD4^+/45RA^+ T-cells (FIG. 31A-B below), isolated from MNC fractions (Miltenyi), were incubated in DMEM media with 1% human serum albumin or exposed to complement protein C3a (1 μg/ml) for 30 minutes at RT. […] Transmigrated cells were counted (Z Series Coulter counter) and stained with anti-CD4-PerCP anti-CD45-APC antibodies for 20 min in PBS buffer with 10% FBS prior to flow cytometric analyses on a […] in […], cells were fixed in 2% paraformaldehyde prior to acquisition. […]

UCB CD34+ cells = assay: Actin polymerization in CD34+ cells; format: cell-based, human; conditions: in the presence of C3a
Description: Exposure of UCB CD34^+ cells to a low dose of SDF-1 promotes actin polymerization which is enhanced by the presence of C3a.
(§1) In another set of experiments, we attempted to elucidate the molecular mechanisms by which C3a enhances the responsiveness of hematopoietic cells to an SDF-1 gradient. […] However, we observed that actin polymerization of CD34^+ cells to a low dose of SDF-1 was enhanced in the presence of C3a.

CXCR4 [5] = assay: FACS analysis of CXCR4 expression on BM or UCB CD34+ cells; format: cell-based, human; set-up: dose or concentration left out as unconfirmed; conditions: 0, 12, and 24 hrs
Description: as §1

C3a: 77 amino acid residue protein derived from the human complement C3a precursor; SEQ ID NO:1
adhesion of UCB CD34+ cells to human umbilical vein endothelial cells ([1]; C3a): increases adhesion
adhesion of CD34+ cells ([1]; combination of C3a priming and SDF-1): only to a slight increase
incorporation of Rac-1 into membrane lipid rafts (CXCR4 [2]): increased the incorporation of Rac-1
incorporation of CXCR4 into GM1-enriched membrane lipid rafts (fractions 3-5) (CXCR4 [2]; 1 μg/mL): stimulates incorporation of CXCR4
rates of UCB chemotaxis in vitro (UCB MNC): significantly higher rates
MMP-9 and MMP-2 secretion (UCB and BM CD34+ cells): significantly increase
trans-Matrigel migration toward a low dose of SDF-1 (UCB and BM CD34+ cells): significantly increase
homing of murine CFU-GM and CFU-S into BM [3]: home more efficiently; also recorded: homed better; also recorded: primes homing
migration of UCB MNC or naïve CD45+ CD4+ cells to a low SDF-1 gradient [4]: prime migration of a portion of the cell populations
actin polymerization of CD34+ cells to a low dose of SDF-1 (UCB CD34+ cells): enhanced
CXCR4 expression after C3a exposure (CXCR4 [5]): not enhanced; also recorded: negative results
